Laboratory results as given in patent publication US20240239755A1, “SUBSTITUTED PYRIDAZINONES, SALTS OR N-OXIDES THEREOF AND THEIR USE AS HERBICIDALLY ACTIVE SUBSTANCES” (Bayer Aktiengesellschaft, priority 2021, published 2024).

Assays:
Format in all cases: in vivo
[1] = system: Amaranthus retroflexus (AMARE); experiment: Herbicidal pre-emergence action, 1280 g/ha (Table A11); conditions: visual grading after ca. 3 weeks vs untreated controls
Method in brief: (§1)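 Compounds were formulated as WP or EC and sprayed onto the covering soil of freshly sown pots (sandy loam) in 600 L water/ha with 0.5% additive. Pots were kept in a greenhouse, and damage was scored visually after ca. 3 weeks as % effect versus untreated controls (100% = dead).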

[2] = system: Abutilon theophrasti (ABUTH); experiment: Herbicidal post-emergence action, 1280 g/ha (Table B1); conditions: visual assessment after ca. 3 weeks vs untreated controls
Method in brief: (§2)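 Foliar application to single-leaf weeds in sandy loam; percent kill judged visually ca. 3 weeks later relative to untreated plants.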

[3] = system: Abutilon theophrasti (ABUTH); experiment: Herbicidal post-emergence action, 320 g/ha, ABUTH; conditions: visual grading after ca. 3 weeks
Method in brief: (§3)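 Weeds grown in sandy loam were sprayed post-emergence at the single-leaf stage, 2–3 weeks after sowing. Compounds were formulated as WP or EC with 0.5% additive and applied at 320 g/ha in 600 L water/ha. After ~3 weeks in the greenhouse, damage was scored visually as % versus untreated controls (100% = dead).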

Stellaria media (STEME) [4] = experiment: Herbicidal post-emergence action, 1280 g/ha (Table B9); conditions: visual assessment after ca. 3 weeks vs untreated controls
Method in brief: as §2

Kochia scoparia (KCHSC) = experiment: Herbicidal post-emergence action, 1280 g/ha (Table B4); conditions: visual assessment after ca. 3 weeks vs untreated controls
Method in brief: as §2

[5] = system: Matricaria inodora (MATIN); experiment: Herbicidal post-emergence action, 1280 g/ha (Table B6); conditions: visual assessment after ca. 3 weeks vs untreated controls
Method in brief: as §2

Lolium rigidum (LOLRI) [6] = experiment: Herbicidal pre-emergence action, 320 g/ha (Table C2); conditions: visual grading after ca. 3 weeks vs untreated controls
Method in brief: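 Herbicidal effect was graded by eye roughly 3 weeks after treatment, from 0% (as control) to 100% (dead plants). Weed seeds sown in sandy loam were covered and sprayed on the soil surface with WP/EC suspensions or emulsions, 0.5% additive, 600 L water/ha, then kept in a greenhouse.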

[7] = system: Amaranthus retroflexus (AMARE); experiment: Herbicidal pre-emergence action, 320 g/ha, AMARE; conditions: visual grading after ca. 3 weeks
Excerpt: (§4) Seeds of mono- and dicotyledonous weed plants were sown in plastic pots (double sowings with one species of mono- and one species of dicotyledonous weed plants per pot), in sandy loam, and covered with soil. The compounds according to the invention, formulated in the form of wettable powders (WP) or as emulsifiable concentrates (EC), were applied to the surface of the covering soil as an aqueous suspension or as an emulsion, with the addition of 0.5% of an additive, at an application rate of 600 litres of water per hectare (converted). Following treatment, the pots were placed in a greenhouse and kept under optimum growth conditions for the test plants. The visual grading of the damage to the test plants was carried out after ca. 3 weeks in comparison to untreated controls (herbicidal effect in percent (%): 100% effect=plants have died, 0% effect=as control plants).
Tables C1 to C6 below, show the effects of selected compounds of the general formula (I) according to Table 1 on various harmful plants using an application rate corresponding to 320 g/ha obtained by the experimental procedure mentioned above.

Stellaria media (STEME) [8] = experiment: Herbicidal pre-emergence action, 1280 g/ha (Table A9); conditions: visual grading after ca. 3 weeks vs untreated controls
Method in brief: as §1

Veronica persica (VERPE) = experiment: Herbicidal post-emergence action, 1280 g/ha, VERPE; conditions: visual grading vs untreated controls
Method in brief: (§5)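 Visual rating ~3 weeks after treatment: 0% equals untreated control, 100% means plants died. Treatment was a 1280 g/ha foliar spray (600 L water/ha, 0.5% additive, WP or EC formulation) applied to single-leaf-stage plants grown 2–3 weeks in sandy loam under controlled conditions.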

[9] = system: Amaranthus retroflexus (AMARE); experiment: Herbicidal post-emergence action, 1280 g/ha, AMARE; conditions: visual grading vs untreated controls
Method in brief: as §5

Lolium rigidum (LOLRI) [10] = experiment: Herbicidal pre-emergence action, 1280 g/ha (Table A5); conditions: visual grading after ca. 3 weeks vs untreated controls
Method in brief: as §1

[11] = system: Amaranthus retroflexus (AMARE); experiment: Herbicidal post-emergence action, 320 g/ha, AMARE; conditions: visual grading after ca. 3 weeks
Method in brief: as §3

[12] = system: Matricaria inodora (MATIN); experiment: Herbicidal pre-emergence action, 1280 g/ha (Table A6); conditions: visual grading after ca. 3 weeks vs untreated controls
Method in brief: as §1

Stellaria media (STEME) [13] = experiment: Herbicidal post-emergence action, 320 g/ha, STEME; conditions: visual grading after ca. 3 weeks
Method in brief: as §3

Stellaria media (STEME) [14] = experiment: Herbicidal pre-emergence action, 320 g/ha, STEME; conditions: visual grading after ca. 3 weeks
Method in brief: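 Percent herbicidal effect, graded by eye about 3 weeks after treatment relative to untreated pots (0% matching controls, 100% dead plants). Application of 320 g/ha onto soil covering freshly sown seeds, as aqueous suspension or emulsion plus 0.5% additive at 600 L/ha; pots kept in greenhouse.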

[15] = system: Abutilon theophrasti (ABUTH); experiment: Herbicidal pre-emergence action, 1280 g/ha (Table A1); conditions: visual grading after ca. 3 weeks vs untreated controls
Method in brief: as §1

Setaria viridis (SETVI) [16] = experiment: Herbicidal post-emergence action, 1280 g/ha (Table B8); conditions: visual assessment after ca. 3 weeks vs untreated controls
Excerpt: (§6) Seeds of mono- and dicotyledonous weed plants were sown in plastic pots (double sowings with one species of mono- and one species of dicotyledonous weed plants per pot), in sandy loam, covered with soil and grown under controlled growth conditions. 2 to 3 weeks after sowing, the test plants were sprayed in the single-leaf stage. The compounds according to the invention, formulated in the form of wettable powders (WP) or as emulsifiable concentrates (EC), were sprayed onto the green plant parts as an aqueous suspension or as an emulsion, with the addition of 0.5% of an additive, at an application rate of 600 litres of water per hectare (converted). The test plants were placed in the greenhouse for ca. 3 weeks under optimum growth conditions, and then the effect of the preparations was assessed visually in comparison with untreated controls (herbicidal effect in percent (%): 100% effect=plants have died, 0% effect=as control plants). Tables B1 to B11 below, show the effects of selected compounds of the general formula (I) according to Table 1 on various harmful plants using an application rate corresponding to 1280 g/ha obtained by the experimental procedure mentioned above.

Setaria viridis (SETVI) [17] = experiment: Herbicidal pre-emergence action, 1280 g/ha (Table A8); conditions: visual grading after ca. 3 weeks vs untreated controls
Excerpt: as §4, with “plants). Tables A1 to A11 below, show the effects of selected compounds of the general formula (I) according to Table 1 on various harmful plants and an application rate corresponding to 1280 g/ha obtained by the experimental procedure mentioned above.” for “plants).”

Lolium rigidum (LOLRI) [18] = experiment: Herbicidal post-emergence action, 1280 g/ha (Table B5); conditions: visual assessment after ca. 3 weeks vs untreated controls
Method in brief: as §2

Lolium rigidum (LOLRI) [19] = experiment: Herbicidal post-emergence action, 320 g/ha, LOLRI; conditions: visual grading after ca. 3 weeks
Excerpt: as §6, with “plants).” for “plants). Tables B1 to B11 below, show the effects of selected compounds of the general formula (I) according to Table 1 on various harmful plants using an application rate corresponding to 1280 g/ha obtained by the experimental procedure mentioned above.”
Tables D1 to D8 below, show the effects of selected compounds of the general formula (I) according to Table 1 on various harmful plants using an application rate corresponding to 320 g/ha obtained by the experimental procedure mentioned above.

Cc1nn(C)c(=O)c(Oc2ccc(F)cc2C2CC2)c1O [Example I-033]
herbicidal effect AMARE [1]: 90%
herbicidal effect ABUTH [2]: 90%
herbicidal effect ABUTH [3]: 90%
herbicidal effect STEME (Stellaria media (STEME) [4]): 90%
herbicidal effect KCHSC (Kochia scoparia (KCHSC)): 90%
herbicidal effect MATIN [5]: 90%
herbicidal effect LOLRI (Lolium rigidum (LOLRI) [6]): 100%
herbicidal effect AMARE [7]: 90%
herbicidal effect STEME (Stellaria media (STEME) [8]): 90%
herbicidal effect VERPE (Veronica persica (VERPE)): 90%
herbicidal effect AMARE [9]: 100%
herbicidal effect LOLRI (Lolium rigidum (LOLRI) [10]): 100%
herbicidal effect AMARE [11]: 90%

Cc1nn(C)c(=O)c(Oc2cc(Cl)ccc2Br)c1OC(=O)C(C)C [Example I-092]
herbicidal effect AMARE [1]: 100%
herbicidal effect MATIN [12]: 100%
herbicidal effect STEME (Stellaria media (STEME) [13]): 90%
herbicidal effect STEME (Stellaria media (STEME) [4]): 100%
herbicidal effect STEME (Stellaria media (STEME) [14]): 90%
herbicidal effect MATIN [5]: 90%
herbicidal effect LOLRI (Lolium rigidum (LOLRI) [6]): 100%
herbicidal effect AMARE [7]: 90%
herbicidal effect STEME (Stellaria media (STEME) [8]): 100%
herbicidal effect AMARE [9]: 90%
herbicidal effect ABUTH [15]: 90%
herbicidal effect LOLRI (Lolium rigidum (LOLRI) [10]): 100%
herbicidal effect SETVI (Setaria viridis (SETVI) [16]): 90%
herbicidal effect SETVI (Setaria viridis (SETVI) [17]): 90%
herbicidal effect LOLRI (Lolium rigidum (LOLRI) [18]): 90%

Cc1nn(C)c(=O)c(Oc2cc(Cl)ccc2Cl)c1OC(=O)C(C)C [Example I-095]
herbicidal effect AMARE [1]: 100%
herbicidal effect MATIN [12]: 90%
herbicidal effect STEME (Stellaria media (STEME) [13]): 90%
herbicidal effect STEME (Stellaria media (STEME) [4]): 90%
herbicidal effect LOLRI (Lolium rigidum (LOLRI) [19]): 90%
herbicidal effect STEME (Stellaria media (STEME) [14]): 90%
herbicidal effect MATIN [5]: 90%
herbicidal effect LOLRI (Lolium rigidum (LOLRI) [6]): 90%
herbicidal effect AMARE [7]: 90%
herbicidal effect STEME (Stellaria media (STEME) [8]): 100%
herbicidal effect AMARE [9]: 90%
herbicidal effect LOLRI (Lolium rigidum (LOLRI) [10]): 100%
herbicidal effect LOLRI (Lolium rigidum (LOLRI) [18]): 90%
